Reference: patent US8017614B2, “Arylindenopyrimidines compound and use as an adenosine A2a receptor antagonists” (priority 2007, dated 2011)

Key:
[1] = target: T1, human adenosine A2a receptors (Homo sapiens, UniProt P29274); experiment: Adenosine A2a receptor functional assay (cAMP-inducible beta-galactosidase reporter, antagonist mode vs NECA); conditions: CHO-K1 cells overexpressing human adenosine A2a receptors; 50 nM NECA; read-out: A2a cell-based functional Ki
T1 construct: expressed in transfected cells; host or cells: CHO-K1
T1 sequence (P29274 whole entry): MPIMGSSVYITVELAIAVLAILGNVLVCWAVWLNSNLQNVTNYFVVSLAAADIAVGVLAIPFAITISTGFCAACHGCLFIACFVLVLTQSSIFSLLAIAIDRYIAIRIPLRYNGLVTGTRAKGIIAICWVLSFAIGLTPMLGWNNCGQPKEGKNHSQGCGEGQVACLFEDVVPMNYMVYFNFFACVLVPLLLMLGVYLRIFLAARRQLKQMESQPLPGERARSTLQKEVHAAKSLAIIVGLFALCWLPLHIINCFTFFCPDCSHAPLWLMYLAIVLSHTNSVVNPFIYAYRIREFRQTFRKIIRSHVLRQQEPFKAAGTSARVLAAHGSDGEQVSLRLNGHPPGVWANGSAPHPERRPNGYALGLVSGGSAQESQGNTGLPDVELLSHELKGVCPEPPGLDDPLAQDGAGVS
Experimental: Ligand binding assay of adenosine A2a receptor was performed using plasma membrane of HEK293 cells containing human A2a adenosine receptor (PerkinElmer, RB-HA2a) and radioligand [3H] CGS21680 (PerkinElmer, NET1021). Assay was set up in 96-well polypropylene plate in total volume of 200, uL by sequentially adding 20 pL1:20 diluted membrane, pLassay buffer (50 mM Tris HCl, pH7.4 10 mM MgCl2, 1 mM EDTA) containing [3H] CGS2168O, 50, uL diluted compound (4×) or vehicle control in assay buffer. Nonspecific binding was determined by […] NECA. Reaction was carried out at room temperature for 2 hours before filtering through 96 well GF/C filter plate pre-soaked in 50 mM Tris HCl, pH7.4 containing 0.3% polyethylenimine. Plates were then washed 5 times with cold 50 mM Tris HCl, pH7.4, dried and sealed at the bottom. Microscintillation fluid 30, ul was added to each well and the top sealed. Plates were counted on Packard Topcount for [3H]. Data was analyzed in Microsoft Excel and GraphPad Prism programs. […] Plates were counted at 405 nm on Vmax Machine (Molecular Devices). Data was analyzed in Microsoft Excel and GraphPad Prism programs. […]

[2] = target: T2, A1 (Homo sapiens, UniProt P30542); experiment: A1 cell-based functional assay
T2 sequence (P30542 1-326): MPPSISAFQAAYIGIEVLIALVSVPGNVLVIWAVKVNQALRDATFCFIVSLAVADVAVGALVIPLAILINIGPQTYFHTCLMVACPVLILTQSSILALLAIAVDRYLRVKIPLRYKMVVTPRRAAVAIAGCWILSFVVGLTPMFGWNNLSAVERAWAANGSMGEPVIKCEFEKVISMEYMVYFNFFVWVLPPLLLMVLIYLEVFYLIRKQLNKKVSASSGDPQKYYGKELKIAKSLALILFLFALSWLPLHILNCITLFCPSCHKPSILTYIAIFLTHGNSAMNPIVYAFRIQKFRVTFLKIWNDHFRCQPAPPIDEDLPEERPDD

Ki [1]: 0.0082 µM
Ki [2]: 0.0584 µM
Compound: CN1CCN(C(=O)c2ccc3c(c2)-c2nc(N)nc(-c4ccccc4)c2C3=O)CC1 [Compound A, 2-Amino-8-(4-methyl-piperazine-1-carbonyl)-4-phenyl-indeno[1,2-d]pyrimidin-5-one]
